In experiment [1] the target is T1, M3 subtype muscarinic receptor (Sus scrofa, UniProt P11483).
T1 construct: Tracheal submucosal gland cells were isolated from the tracheal epithelium; endogenous in cells; host or cells: primary swine tracheal submucosal (mucus) gland cells in culture
The experiment can be described thus: ACh-induced short-circuit current (ΔIsc) in cultured airway mucus gland cells, Ussing chamber, Schild dose-ratio method. In kind it is cell-based, swine. As to conditions: for Muscarinic inhibition (pA2): Schild dose-ratio method, slope set to 1, inhibition of ACh-induced ΔIsc, pA2 = -log Ki, mean ± SEM; for effect on the cholinergic (ACh) response / antimuscarinic action: at highest drug concentration tested: cetirizine 100 μM, loratadine 30 μM (Table 1; abstract 10 μM), fexofenadine 10 μM.

The target of experiment [2] is T2, H1 receptor (Sus scrofa, UniProt K9IVW0).
T2 construct: Tracheal submucosal gland cells were isolated from the tracheal epithelium; endogenous in cells; host or cells: primary swine tracheal submucosal (mucus) gland cells in culture
T2 sequence (K9IVW0 1-472): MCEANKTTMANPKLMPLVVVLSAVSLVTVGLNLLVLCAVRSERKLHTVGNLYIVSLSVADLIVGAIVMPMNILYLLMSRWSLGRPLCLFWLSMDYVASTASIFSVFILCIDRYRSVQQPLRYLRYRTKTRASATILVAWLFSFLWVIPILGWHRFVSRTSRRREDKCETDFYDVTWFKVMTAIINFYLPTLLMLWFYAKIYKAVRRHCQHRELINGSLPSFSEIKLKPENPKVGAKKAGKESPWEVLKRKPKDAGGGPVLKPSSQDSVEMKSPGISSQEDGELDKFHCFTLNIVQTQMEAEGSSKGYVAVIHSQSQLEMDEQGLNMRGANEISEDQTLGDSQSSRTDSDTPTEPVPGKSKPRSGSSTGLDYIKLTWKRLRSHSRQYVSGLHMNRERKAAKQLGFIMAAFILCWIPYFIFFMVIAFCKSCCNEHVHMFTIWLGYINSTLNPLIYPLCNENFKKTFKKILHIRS
The experiment can be described thus: histamine-induced short-circuit current (ΔIsc) in cultured airway mucus gland cells, Ussing chamber. In kind it is cell-based, swine.

The target of experiment [3] is histamine H1 receptor. To be noted: radioligand binding assays; ref 18 Anthes et al.; cited from earlier work.
Experiment [4] deals with muscarinic receptors in the cerebral cortex. As to conditions: read-out: Ki against muscarinic receptors, radioligand (QNB) binding, all muscarinic subtypes, ref 16 Kubo et al.; cited from earlier work.
[5] abbreviates: read-out: H1 receptor inhibition (~1/2 max-μM).

Like-named read-outs stand apart in the source and are kept apart here.

The text below walks through data of PMC1079883, “Effects of first and second generation antihistamines on muscarinic induced mucus gland cell ion transport” (BMC Pharmacology, 2005).

The Ki is the dissociation constant of the complex between target and ligand, obtained from inhibition or displacement.

T1 sequence (P11483 whole entry): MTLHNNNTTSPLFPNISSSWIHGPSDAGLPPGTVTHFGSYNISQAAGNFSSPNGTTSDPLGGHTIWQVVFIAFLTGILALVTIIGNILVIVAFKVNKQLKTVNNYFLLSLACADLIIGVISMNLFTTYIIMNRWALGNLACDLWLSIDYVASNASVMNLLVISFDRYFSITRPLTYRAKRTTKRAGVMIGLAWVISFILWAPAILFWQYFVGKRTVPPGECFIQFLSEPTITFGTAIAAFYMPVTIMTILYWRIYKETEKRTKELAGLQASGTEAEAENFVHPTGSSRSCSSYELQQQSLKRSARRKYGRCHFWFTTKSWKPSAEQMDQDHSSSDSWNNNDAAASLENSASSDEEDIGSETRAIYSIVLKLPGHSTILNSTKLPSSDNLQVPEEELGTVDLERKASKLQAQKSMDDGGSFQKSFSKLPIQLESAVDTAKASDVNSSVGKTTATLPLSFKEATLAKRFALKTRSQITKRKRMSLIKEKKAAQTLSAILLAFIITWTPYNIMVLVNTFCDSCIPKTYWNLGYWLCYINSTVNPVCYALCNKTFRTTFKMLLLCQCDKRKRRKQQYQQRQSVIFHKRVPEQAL

On to `COc1ccccc1CNCCCCCCNCCCCCCCCNCCCCCCNCc1ccccc1OC` [Methoctramine], for which, in experiment [1], the Kb is 2510 nM and the “Muscarinic inhibition (pA2)” value stood at 5.6.
With `CC(C)(C(=O)O)c1ccc(C(O)CCCN2CCC(C(O)(c3ccccc3)c3ccccc3)CC2)cc1` (centres unmarked) [Fexofenadine], in experiment [2] (H1 receptor inhibition (~1/2 max-μM)), the IC50 stood at 0.25 µM.
As for `O=C(O)COCCN1CCN(C(c2ccccc2)c2ccc(Cl)cc2)CC1` (centres unmarked) [Cetirizine], the figures for the “effect on the cholinergic (ACh) response / antimuscarinic action” value in experiment [1] and in experiment [1] (listed as cetirizine) were “No effect (at 100 μM)” and “no effects”, respectively. Also, in experiment [2] (setting [5]), the IC50 turned out to be 0.12 µM.
`NCCc1c[nH]cn1` [histamine]: the “maximum increase in current (ΔIsc)” value in experiment [2] came out at 19 ± 1 μA/cm^2.
As to `OCCOCCN1CCN(C(c2ccccc2)c2ccc(Cl)cc2)CC1` (centres unmarked) [Hydroxyzine], the Kb in experiment [1] is 15800 nM; in experiment [3], 10 nM. Besides, the Ki in experiment [1] (M3 muscarinic receptor induced ΔIsc, from Schild analysis, read-out: estimated Ki for inhibition of muscarinic receptors) is 15000 nM; in experiment [4], 3800 nM. Besides, in experiment [1], the “Muscarinic inhibition (pA2)” value is reported as 4.8. Further, the IC50 in experiment [2] (setting [5]) was determined as 0.14 µM.
Regarding `CC(=O)OCC[N+](C)(C)C` [ACh, acetylcholine], in experiment [1], the “maximum increase in current (ΔIsc)” value worked out at 15.5 ± 1 μA/cm^2.
